Reference: patent publication US20220241202A1, “METHOD AND VEHICLE FOR DELIVERING AGENTS ACROSS THE BLOOD-BRAIN BARRIER” (priority 2019, published 2022)

Columns and labels:
CAD cells [1] = test: Nanoscale flow cytometry of EVs secreted from CAD cells expressing GFP-72Q huntingtin^exon1; assay type: cell-based
Description: (§1) Cell lines were transfected with the molecular chaperone CSPα and a GFP-tagged protein. CAD cells (catecholaminergic derived CNS cells) were the cell line utilized. Other cell lines, including patient-derived cell lines, may also be utilized. cDNAs encoding for myc-tagged CSPα or vector alone and GFP-72Q huntingtin^exon1 were transiently transfected with Lipofectamine™ 3000 (Invitrogen) in Opti-MEM™ medium. Media was changed to serum-free media 6 hours post-transfection. Media was collected 48 hours after transfection, spun at 300×g for 5 min to remove cell debris and evaluated without further processing by nanocyte tracking analysis, nanoscale flow cytometry analysis and dot blot analysis. For western blot analysis, EVs were isolated from the unfractionated media by exoquick precipitation solution (SBI) and solubilized in sample buffer. Following media collection, cell viability was determined using an XTT assay (New England Biolabs). When resveratrol was used, it was added to the serum-free media 6 hours post-transfection at the time of the media change.
For NTA and nanoscale flow cytometry analysis, all samples were diluted 25 fold using 0.2× phosphate buffered saline that had been filtered twice through 0.2 μm filter. For NTA analysis, all samples were analyzed using the Nanosight LM10 (405 nm laser, 60 mW, software version 3.00064). Samples were analyzed in triplicate for 60 seconds per replicate with a count range of 20-100 particles per frame. A variety of NIST (Thermo Scientific 3000 Series) standards were analyzed, each the day prior to sample analysis. The system was cleaned between each sample and checked for any sample carryover using the PBS diluent. NTA measures EVs within a size range from about 30 nm to about 1,000 nm.
Samples were similarly prepared for nanoscale flow cytometry as for NTA. All samples were analyzed using the Apogee A50 flow cytometry platform. Light scatter was provided using the 405 nm laser (75 mW); GFP signal was generated using the 488 nm laser (50 mW, 535/35) and far red signal was generated using the 630 nm laser (75 mW, 680/35). All samples were analyzed for 60 seconds. Optimization was performed to insure single EVs were being analyzed and single events were triggered by light scatter only. The system was cleaned each day prior to sample analysis and a variety of silica and polystyrene standards (Apogee 1493 standards) processed for instrument set up and QC. The silica standards were used to assess the relative size range of EVs. Nanoscale flow cytometry measures EVs within a size range from about 100 nm to about 1,300 nm. […]

CAD cells [2] = test: Western blot / dot blot analysis of GFP-72Q huntingtin^exon1 in EVs collected from CAD cells; assay type: cell-based
Description: as §1
(§2) Proteins were separated by SDS-PAGE and electrotransferred from polyacrylamide gels to nitrocellulose membrane (0.2 μm pore size). Membranes were blocked in tris-buffered saline (TBS) containing 0.1% Tween 20, 1% BSA and then incubated with primary antibody overnight at 4° C. The membranes were washed and incubated with horseradish peroxidase-coupled secondary antibody for about 2 hours at room temperature. Bound antibodies on the membranes were detected by incubation with Pierce chemiluminescent reagent and exposure to Cdigit, LiCor (Mandel). The chemiluminescent signals were quantified using image studio digits software (Mandel). For dot blots, 10 μl of unfractionated media was spotted on a nitrocellulose membrane, dried and the membrane was processed as described above.

naive CAD cells = test: EV delivery of GFP-72Q huntingtin^exon1 cargo to naive recipient CAD cells (live cell fluorescence imaging); assay type: cell-based; settings: for GFP-72Q huntingtin^exon1 cargo / aggregates in recipient CAD cells after media application: conditioned media applied to naive cells, imaged 1-48 hours
Description: Images of live cells were taken with the EVOS FL Auto Imaging System. Images of donor cells were taken at the time of media collection. Images of recipient cells were taken between 1-48 hours. The intensity of the GFP-72Q huntingtin^exon1 varied among cells and a single slider was used until the on-screen brightness of the lowest intensity aggregate was satisfactory and used this setting to capture images in high-quality mode. Where indicated, after the 300×g for 5 minutes conditioned media spin to remove cell debris, 60 μl of Exo-Red (SBI) was incubated with 1 ml media containing EVs for 10 minutes at 37° C. to label the RNA EV cargo. 150 μl of exo-quick was added, the labelled EVs were placed on ice for 30 min and then centrifuged for 3 minutes at 20,000×g. The labelled EV pellet was resuspended in 1 ml of DMEM-F12 media and applied to target cells.

CAD cells [3] = test: Screen of J proteins for EV-mediated export of misfolded huntingtin (western blot and nanoscale flow cytometry); assay type: cell-based; settings: cells expressing GFP-tagged 72Q huntingtin^exon1 and the J protein
Description: as §1, §2
Samples were similarly prepared for nanoscale flow cytometry as for NTA. All samples were analyzed using the Apogee A50 flow cytometry platform. Light scatter was provided using the 405 nm laser (75 mW); GFP signal was generated using the 488 nm laser (50 mW, 535/35) and far red signal was generated using the 630 nm laser (75 mW, 680/35). All samples were analyzed for 60 seconds. Optimization was performed to insure single EVs were being analyzed and single events were triggered by light scatter only. The system was cleaned each day prior to sample analysis and a variety of silica and polystyrene standards (Apogee 1493 standards) processed for instrument set up and QC. The silica standards were used to assess the relative size range of EVs. Nanoscale flow cytometry measures EVs within a size range from about 100 nm to about 1,300 nm.
To test whether other J proteins may also export misfolded proteins, several J proteins with reported links to neurodegeneration were screened for EV-mediated export activity. […] Alternative splicing of the DnaJB2 gene produces two isoforms, a DnaJB2short and a 42 kDa DnaJB2long isoform that undergoes C terminal geranylgeranylation. DnaJB2long was studied further. […] Extracellular milieu includes free floating co-chaperones in addition to EVs, and chaperones that adhere to EVs were expected to co-isolate with EVs. […] In fact, DnaJB11 as well as DnaJA1 were robustly secreted by CAD neurons under all conditions evaluated (FIG. 5C).

[4] = previously shown; cited from earlier work
[5] = presence of CSPα and 50 μM resveratrol

Oc1ccc(C=Cc2cc(O)cc(O)c2)cc1 [resveratrol, Resveratrol]
GFP-72Q huntingtin^exon1-containing EVs (CAD cells [1]; 50 μM resveratrol 6 hours following transfection): decreasing | total EVs exported by CAD cells (CAD cells [1]; 50 μM resveratrol 6 hours following transfection, all conditions (vector, CSPα, CSPαL115R, CSPαΔ116)): increased total EVs exported by CAD cells in all conditions | mean size of vesicles (CAD cells [1]; 50 μM resveratrol, all conditions): increased the mean size of vesicles | total EV secretion (CAD cells [1]; 50 μM resveratrol, control, vector and CSPα-expressing cells): increases total EV secretion | CSPα-EV export of EVs containing GFP-72Q huntingtin^exon1 (CAD cells [1]; 50 μM resveratrol, p<0.0001): significantly reduced | EVs containing GFP cargo within the 180-240 nm subpopulation (CAD cells [1]; [5]): 0.53% | EVs containing GFP cargo within the <180 nm subpopulation (CAD cells [1]; [5]): 0.03% | EVs containing GFP cargo within the >240 nm subpopulation (CAD cells [1]; [5]): 0.78% | secretion of the 180-240 nm GFP-labelled EV pool (CAD cells [1]; resveratrol concentration response): significantly reduced secretion of the 180-240 nm GFP-labelled EV pool in a concentration-dependent manner | secretion of GFP-72Q huntingtin^exon1 and CSPα (western blot of EVs) (CAD cells [2]; 50 μM resveratrol): reduced secretion of GFP-72Q huntingtin^exon1 but not CSPα | secretion of GFP-72Q huntingtin^exon1 mediated by CSPα and ANCL mutants (CAD cells [2]; 50 μM resveratrol): reduced secretion of GFP-72Q huntingtin^exon1 mediated by CSPα, CSPαL115R and CSPαΔ116 | GFP cargo in recipient cells (naive CAD cells; media produced from neurons treated with 50 μM resveratrol): GFP cargo was still detected in recipient cells

DnaJA1: related J protein
EV-mediated export of misfolded huntingtin (CAD cells [3]): did not export misfolded huntingtin

DnaJB1: related J protein
EV-mediated export of misfolded huntingtin (CAD cells [3]): did not export misfolded huntingtin

DnaJC13: related J protein
EV-mediated export of misfolded huntingtin (CAD cells [3]): did not export misfolded huntingtin

DnaJC19: related J protein
EV-mediated export of misfolded huntingtin (CAD cells [3]): did not export misfolded huntingtin

α-synuclein
mutant huntingtin export with increasing protein expression (CAD cells [2]; western blot of EVs): did not result in mutant huntingtin export | GFP-72Q huntingtin^exon1 cargo / aggregates in recipient CAD cells after media application (naive CAD cells): low levels of GFP signal at 24 hours

B1: DnaJB11: related J protein (protein, UniProt Q9UBS4 23-358, looked up)
DnaJ homolog subfamily B …: GRDFYKILGVPRSASIKDIKKAYRKLALQLHPDRNPDDPQAQEKFQDLGAAYEVLSDSEKRKQYDTYGEEGLKDGHQSSHGDIFSHFFGDFGFMFGGTPRQQDRNIPRGSDIIVDLEVTLEEVYAGNFVEVVRNKPVARQAPGKRKCNCRQEMRTTQLGPGRFQMTQEVVCDECPNVKLVNEERTLEVEIEPGVRDGMEYPFIGEGEPHVDGEPGDLRFRIKVVKHPIFERRGDDLYTNVTISLVESLVGFEMDITHLDGHKVHISRDKITRPGAKLWKKGEGLPNFDNNNIKGSLIITFDVDFPKEQLTEEAREGIKQLLKQGSVQKVYNGLQGY
EV-mediated export of misfolded huntingtin (CAD cells [3]): did not export misfolded huntingtin

B2: CSPαL115R: CSPα with the human L115R mutation that causes ANCL (protein, UniProt Q9H3Z4 1-198, looked up, variant L115R)
DnaJ homolog subfamily C …: MADQRQRSLSTSGESLYHVLGLDKNATSDDIKKSYRKLALKYHPDKNPDNPEAADKFKEINNAHAILTDATKRNIYDKYGSLGLYVAEQFGEENVNTYFVLSSWWAKALFVFCGRLTCCYCCCCLCCCFNCCCGKCKPKAPEGEETEFYVSPEDLEAQLQSDEREATDTPIVIQPASATETTQLTADSHPSYHTDGFN
export of GFP-72Q huntingtin^exon1 [4]: promote export

B3: CSPαHPD-AAA: loss-of-function CSPα mutant that does not interact with Hsp70 ATPases (protein, UniProt Q9H3Z4 1-198, looked up, variant H43A P44A D45A)
DnaJ homolog subfamily C …: MADQRQRSLSTSGESLYHVLGLDKNATSDDIKKSYRKLALKYAAAKNPDNPEAADKFKEINNAHAILTDATKRNIYDKYGSLGLYVAEQFGEENVNTYFVLSSWWAKALFVFCGLLTCCYCCCCLCCCFNCCCGKCKPKAPEGEETEFYVSPEDLEAQLQSDEREATDTPIVIQPASATETTQLTADSHPSYHTDGFN
GFP-72Q huntingtin^exon1 cargo / aggregates in recipient CAD cells after media application (naive CAD cells): low levels of GFP signal at 24 hours | export of GFP-72Q huntingtin^exon1 [4]: does not

B4: CSPαΔ116: CSPα with the human L116Δ mutation that causes ANCL (protein, UniProt Q9H3Z4 1-198, looked up, variant L116*)
DnaJ homolog subfamily C …: MADQRQRSLSTSGESLYHVLGLDKNATSDDIKKSYRKLALKYHPDKNPDNPEAADKFKEINNAHAILTDATKRNIYDKYGSLGLYVAEQFGEENVNTYFVLSSWWAKALFVFCGLTCCYCCCCLCCCFNCCCGKCKPKAPEGEETEFYVSPEDLEAQLQSDEREATDTPIVIQPASATETTQLTADSHPSYHTDGFN
export of GFP-72Q huntingtin^exon1 [4]: promote export

B5: DnaJB2: DnaJ Heat Shock Protein Family (Hsp40) Member B2 (protein, UniProt P25686 2-321, looked up)
DnaJ homolog subfamily B …: ASYYEILDVPRSASADDIKKAYRRKALQWHPDKNPDNKEFAEKKFKEVAEAYEVLSDKHKREIYDRYGREGLTGTGTGPSRAEAGSGGPGFTFTFRSPEEVFREFFGSGDPFAELFDDLGPFSELQNRGSRHSGPFFTFSSSFPGHSDFSSSSFSFSPGAGAFRSVSTSTTFVQGRRITTRRIMENGQERVEVEEDGQLKSVTINGVPDDLALGLELSRREQQPSVTSRSGGTQVQQTPASCPLDSDLSEDEDLQLAMAYSLSEMEAAGKKPAGGREAQHRRQGRPKAQHQDPGLGGTQEGARGEATKRSPSPEEKASRC
EV-mediated export of misfolded huntingtin (CAD cells [3]): exports misfolded huntingtin in EVs

B6: DnaJC14: related J protein (protein, UniProt Q6Y2X3 1-702, looked up)
DnaJ homolog subfamily C …: MAQKHPGERGLYGAHHSGGASLRTLGPSVDPEIPSFSGLRDSAGTAPNGTRCLTEHSGPKHTQHPNPAHWLDPSHGPPGGPGPPRDAEDPDQSETSSEEESGVDQELSKENETGNQKDGNSFLSIPSACNCQGTPGIPEGPYSEGGNGSSSNFCHHCTSPALGEDELEEEYDDEESLKFPSDFSRVSSGKKPPSRRQRHRFPTKEDTREGGRRDPRSPGRHRLGRKRSQADKRKGLGLWGAEELCQLGQAGFWWLIELLVLVGEYVETCGHLIYACRQLKSSDLDLFRVWMGVWTGRLGGWAQVMFQFLSQGFYCGVGLFTRFLKLLGALLLLALALFLGFLQLGWRFLVGLGDRLGWRDKATWLFSWLDSPALQRCLTLLRDSRPWQRLVRIVQWGWLELPWVKQNINRQGNAPVASGRYCQPEEEVARLLTMAGVPEDELNPFHVLGVEATASDVELKKAYRQLAVMVHPDKNHHPRAEEAFKVLRAAWDIVSNAEKRKEYEMKRMAENELSRSVNEFLSKLQDDLKEAMNTMMCSRCQGKHRRFEMDREPKSARYCAECNRLHPAEEGDFWAESSMLGLKITYFALMDGKVYDITEWAGCQRVGISPDTHRVPYHISFGSRIPGTRGRQRATPDAPPADLQDFLSRIFQVPPGQMPNGNFFAAPQPAPGAAAASKPNSTVPKGEAKPKRRKKVRRPFQR
EV-mediated export of misfolded huntingtin (CAD cells [3]): did not export misfolded huntingtin
